From US9532553B2, “Process for treating with a chemical compound a body of water used in aquaculture” (SOLVAY SA, priority 2009, dated 2017)

Tests used:
Atlantic salmons = conditions: Example 3: 1500 ppm hydrogen peroxide in 500 m^3 sea water, added in about 4.5 min via eductor nozzle agitation system, treatment continued 22.5 min
Experimental: The treatment was continued for 22.5 minutes then the treated water was flushed away and replaced by fresh seawater.
In Example 3, the body of water comprised additionally Atlantic salmons as living organisms, said salmons being infested with external parasites, i.e. salmon lice (Lepeophtheirus salmonis). The purpose of the test was to remove these parasites from the fish.

[1] = tested on: salmon lice (Lepeophtheirus salmonis); conditions: Example 3: 1500 ppm hydrogen peroxide in 500 m^3 sea water, added in about 4.5 min, treatment continued 22.5 min, then flushed; infested Atlantic salmons

SMILES: OO [hydrogen peroxide]
- injury to the fish (Atlantic salmons): without injuring the fish
- removal of salmon lice from the treated fish [1]: effective in removing the salmon lice
